Measured values: US10023558B2, “Compounds” (CHIESI FARMACEUTICI S.P.A., priority 2016, dated 2018)
pIC50: −log10 of the molar value.

biological target: T1, human neutrophil elastase (HNE) (Homo sapiens, UniProt P08246); test: HNE Enzyme Assay (fluorogenic peptide substrate MeOSuc-Ala-Ala-Pro-Val-AMC); format: biochemical; settings: human leukocyte elastase 0.00072 U/mL, substrate 100 μM, 25° C., 30 minutes, at least two separate experiments; read-out: HNE inhibition (IC50 values)
T1 construct: purchased Sigma E8140
T1 sequence (P08246 30-247 limits assumed): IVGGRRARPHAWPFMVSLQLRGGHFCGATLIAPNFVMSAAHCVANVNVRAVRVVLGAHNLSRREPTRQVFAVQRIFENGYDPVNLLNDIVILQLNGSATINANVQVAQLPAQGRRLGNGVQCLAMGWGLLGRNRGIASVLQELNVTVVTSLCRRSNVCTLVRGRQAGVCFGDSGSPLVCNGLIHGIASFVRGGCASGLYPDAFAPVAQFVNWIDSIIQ
Procedure, shortened: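 Human leukocyte elastase (0.00072 U/mL) with 100 μM MeOSuc-AAPV-AMC in Tris pH 7.5 buffer with NaCl, CaCl2, Brij-35, 1% DMSO, 30 min at 25° C, stopped with soybean trypsin inhibitor. AMC fluorescence (ex 380/em 460 nm); IC50 from concentration-response as % inhibition of control, at least two experiments.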

pIC50, > 9.00:
Cc1c(-c2ccnn2-c2ccc(C#N)cc2)n(C(=O)N[C@H]2C[C@@H]3C[N+](C)(C)C[C@@H]3C2)c(=O)n1-c1cccc(C(F)(F)F)c1 [Example 56, (3aR,5S,6aS)-5-{[5-[2-(4-Cyano-phenyl)-2H-pyrazol-3-yl]-4-methyl-2-oxo-3-(3-trifluoromethyl-phenyl)-2,3-dihydro-imidazole-1-carbonyl]-amino}-2,2-dimethyl-octahydro-cyclopenta[c]pyrrolium benzene sulfonate]
Cc1c(-c2ccnn2-c2ccc(C#N)cc2)n(C(=O)N[C@@H](C)C(=O)NC2CC[N+](C)(C)CC2)c(=O)n1-c1cccc(C(F)(F)F)c1 [Example 57, 4-((S)-2-{[5-[2-(4-Cyano-phenyl)-2H-pyrazol-3-yl]-4-methyl-2-oxo-3-(3-trifluoromethyl-phenyl)-2,3-dihydro-imidazole-1-carbonyl]-amino}-propionylamino)-1,1-dimethyl-piperidinium benzene sulfonate]
Cc1c(-c2ccnn2-c2ccc(C#N)cc2)n(C(=O)N[C@@H](C)c2ccc(C[N+](C)(C)C)cc2)c(=O)n1-c1cccc(C(F)(F)F)c1 [Example 58, [4-((S)-1-{[5-[2-(4-Cyano-phenyl)-2H-pyrazol-3-yl]-4-methyl-2-oxo-3-(3-trifluoromethyl-phenyl)-2,3-dihydro-imidazole-1-carbonyl]-amino}-ethyl)-benzyl]-trimethyl-ammonium benzene sulfonate]
Cc1c(-c2ccnn2-c2ccc(C#N)cc2)n(C(=O)N[C@@H](C)c2nc(C[N+](C)(C)C)no2)c(=O)n1-c1cccc(C(F)(F)F)c1 [Example 60, [5-((S)-1-{[5-[2-(4-Cyano-phenyl)-2H-pyrazol-3-yl]-4-methyl-2-oxo-3-(3-trifluoromethyl-phenyl)-2,3-dihydro-imidazole-1-carbonyl]-amino}-ethyl)-[1,2,4]oxadiazol-3-ylmethyl]-trimethyl-ammonium benzene sulfonate]
Cc1c(-c2ccnn2-c2ccc(C#N)cc2)n(C(=O)NC2CCN(C(=O)C[N+](C)(C)C)CC2)c(=O)n1-c1cccc(C(F)(F)F)c1 [Example 61, [2-(4-{[5-[2-(4-Cyano-phenyl)-2H-pyrazol-3-yl]-4-methyl-2-oxo-3-(3-trifluoromethyl-phenyl)-2,3-dihydro-imidazole-1-carbonyl]-amino}-piperidin-1-yl)-2-oxo-ethyl]-trimethyl-ammonium benzene sulfonate]
Cc1c(-c2ccnn2-c2ccc(C#N)cc2)n(C(=O)N[C@@H](C)C(=O)N(C)CC2CC[N+](C)(C)CC2)c(=O)n1-c1cccc(C(F)(F)F)c1 [Example 62, 4-{[((S)-2-{[5-[2-(4-Cyano-phenyl)-2H-pyrazol-3-yl]-4-methyl-2-oxo-3-(3-trifluoromethyl-phenyl)-2,3-dihydro-imidazole-1-carbonyl]-amino}-propionyl)-methyl-amino]-methyl}-1,1-dimethyl-piperidinium benzene sulfonate]
Cc1c(-c2ccnn2-c2ccc(C#N)cc2)n(C(=O)N[C@@H](C)c2nnc(C[N+](C)(C)C)o2)c(=O)n1-c1cccc(C(F)(F)F)c1 [Example 63, [5-((S)-1-{[5-[2-(4-Cyano-phenyl)-2H-pyrazol-3-yl]-4-methyl-2-oxo-3-(3-trifluoromethyl-phenyl)-2,3-dihydro-imidazole-1-carbonyl]-amino}-ethyl)-[1,3,4]oxadiazol-2-ylmethyl]-trimethyl-ammonium benzene sulfonate]
Cc1c(-c2ccnn2-c2ccc(C#N)cc2)n(C(=O)N[C@@H](C)c2ncc(C[N+](C)(C)C)o2)c(=O)n1-c1cccc(C(F)(F)F)c1 [Example 64, [2-((S)-1-{[5-[2-(4-Cyano-phenyl)-2H-pyrazol-3-yl]-4-methyl-2-oxo-3-(3-trifluoromethyl-phenyl)-2,3-dihydro-imidazole-1-carbonyl]-amino}-ethyl)-oxazol-5-ylmethyl]-trimethyl-ammonium benzene sulfonate]
Cc1c(-c2ccnn2-c2ccc(C#N)cc2)n(C(=O)NC2CCN(C(=O)CC[N+](C)(C)C)CC2)c(=O)n1-c1cccc(C(F)(F)F)c1 [Example 65, [3-(4-{[5-[2-(4-Cyano-phenyl)-2H-pyrazol-3-yl]-4-methyl-2-oxo-3-(3-trifluoromethyl-phenyl)-2,3-dihydro-imidazole-1-carbonyl]-amino}-piperidin-1-yl)-3-oxo-propyl]-trimethyl-ammonium benzene sulfonate]
Cc1c(-c2ccnn2-c2ccc(C#N)cc2)n(C(=O)NC2CCC3(CC2)CC[N+](C)(C)CC3)c(=O)n1-c1cccc(C(F)(F)F)c1 [Example 66, 9-{[5-[2-(4-Cyano-phenyl)-2H-pyrazol-3-yl]-4-methyl-2-oxo-3-(3-trifluoromethyl-phenyl)-2,3-dihydro-imidazole-1-carbonyl]-amino}-3,3-dimethyl-3-azonia-spiro[5.5]undecane benzene sulfonate]
Cc1c(-c2ccnn2-c2ccc(C#N)cc2)n(C(=O)N[C@H]2C[C@@H](C[N+](C)(C)C)C2)c(=O)n1-c1cccc(C(F)(F)F)c1 [Example 67, (Cis-3-{[5-[2-(4-cyano-phenyl)-2H-pyrazol-3-yl]-4-methyl-2-oxo-3-(3-trifluoromethyl-phenyl)-2,3-dihydro-imidazole-1-carbonyl]-amino}-cyclobutylmethyl)-trimethyl-ammonium benzene sulfonate]
Cc1c(-c2ccnn2-c2ccc(C#N)cc2)n(C(=O)N[C@H]2C[C@H](C[N+](C)(C)C)C2)c(=O)n1-c1cccc(C(F)(F)F)c1 [Example 68, (Trans-3-{[5-[2-(4-cyano-phenyl)-2H-pyrazol-3-yl]-4-methyl-2-oxo-3-(3-trifluoromethyl-phenyl)-2,3-dihydro-imidazole-1-carbonyl]-amino}-cyclobutylmethyl)-trimethyl-ammonium benzene sulfonate]
Cc1c(-c2ccnn2-c2ccc(C#N)cc2)n(C(=O)N[C@@H](C)C(=O)N2CCC([N+](C)(C)C)CC2)c(=O)n1-c1cccc(C(F)(F)F)c1 [Example 69, [1-((S)-2-{[5-[2-(4-Cyano-phenyl)-2H-pyrazol-3-yl]-4-methyl-2-oxo-3-(3-trifluoromethyl-phenyl)-2,3-dihydro-imidazole-1-carbonyl]-amino}-propionyl)-piperidin-4-yl]-trimethyl-ammonium benzene sulfonate]
Cc1c(-c2ccnn2-c2ccc(C#N)cc2)n(C(=O)N[C@@H](C)C(=O)N2CCC([N+](C)(C)Cc3ccccc3)CC2)c(=O)n1-c1cccc(C(F)(F)F)c1 [Example 70, Benzyl-[1-((S)-2-{[5-[2-(4-cyano-phenyl)-2H-pyrazol-3-yl]-4-methyl-2-oxo-3-(3-trifluoromethyl-phenyl)-2,3-dihydro-imidazole-1-carbonyl]-amino}-propionyl)-piperidin-4-yl]-dimethyl-ammonium bromide]
Cc1c(-c2ccnn2-c2ccc(C#N)cc2)n(C(=O)N[C@@H](C)C(=O)N(C)CC[N+](C)(C)C)c(=O)n1-c1cccc(C(F)(F)F)c1 [Example 71, {2-[((S)-2-{[5-[2-(4-Cyano-phenyl)-2H-pyrazol-3-yl]-4-methyl-2-oxo-3-(3-trifluoromethyl-phenyl)-2,3-dihydro-imidazole-1-carbonyl]-amino}-propionyl)-methyl-amino]-ethyl}-trimethyl-ammonium benzene sulfonate]
Cc1c(-c2ccnn2-c2ccc(C#N)cc2)n(C(=O)N[C@H]2CC[C@H]([N+](C)(C)Cc3ncon3)CC2)c(=O)n1-c1cccc(C(F)(F)F)c1 [Example 72, (Trans-4-{[5-[2-(4-cyano-phenyl)-2H-pyrazol-3-yl]-4-methyl-2-oxo-3-(3-trifluoromethyl-phenyl)-2,3-dihydro-imidazole-1-carbonyl]-amino}-cyclohexyl)-dimethyl-[1,2,4]oxadiazol-3-ylmethyl-amnionium chloride]
Cc1c(-c2ccnn2-c2ccc(C#N)cc2)n(C(=O)N[C@H](c2ncc(C[N+](C)(C)C)o2)C(C)C)c(=O)n1-c1cccc(C(F)(F)F)c1 [Example 73, [2-((S)-1-{[5-[2-(4-Cyano-phenyl)-2H-pyrazol-3-yl]-4-methyl-2-oxo-3-(3-trifluoromethyl-phenyl)-2,3-dihydro-imidazole-1-carbonyl]-amino}-2-methyl-propyl)-oxazol-5-ylmethyl]-trimethyl-ammonium benzene sulfonate]
CC[C@H](NC(=O)n1c(-c2ccnn2-c2ccc(C#N)cc2)c(C)n(-c2cccc(C(F)(F)F)c2)c1=O)c1ncc(C[N+](C)(C)C)o1 [Example 74, [2-((S)-1-{[5-[2-(4-Cyano-phenyl)-2H-pyrazol-3-yl]-4-methyl-2-oxo-3-(3-trifluoromethyl-phenyl)-2,3-dihydro-imidazole-1-carbonyl]-amino}-propyl)-oxazol-5-ylmethyl]-trimethyl-ammonium benzene sulfonate]
Cc1cc(C[N+](C)(C)[C@H]2CC[C@H](NC(=O)n3c(-c4ccnn4-c4ccc(C#N)cc4)c(C)n(-c4cccc(C(F)(F)F)c4)c3=O)CC2)no1 [Example 75, (4-{[5-[2-(4-Cyano-phenyl)-2H-pyrazol-3-yl]-4-methyl-2-oxo-3-(3-trifluoromethyl-phenyl)-2,3-dihydro-imidazole-1-carbonyl]-amino}-cyclohexyl)-dimethyl-(5-methyl-isoxazol-3-ylmethyl)-ammonium chloride]
